Measured values as given in patent US10308644B2, “Heterocyclic compounds as immunomodulators” (Incyte Corporation, priority 2016, dated 2019).

biological target: PD-1/PD-L1 (Homo sapiens (Human), UniProt Q9NZQ7); test: PD-1/PD-L1 Homogeneous Time-Resolved Fluorescence (HTRF) Binding Assay; settings: recombinant human PD-1 (3 nM) and PD-L1 (10 nM), 25° C., PBS pH 7.4
Outline: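 Fc-tagged human PD-1 (25-167, 3 nM) and His-tagged PD-L1 (19-238, 10 nM) preincubated with inhibitor 40 min in PBS pH 7.4, 0.05% Tween-20, 0.1% BSA, 1% DMSO, 25 °C. Binding detected by HTRF (Eu anti-IgG/APC anti-His, 665/620 nm) after 60 min; IC50 from percent control activity.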

Chain of PD-1/PD-L1 (Q9NZQ7 19-238): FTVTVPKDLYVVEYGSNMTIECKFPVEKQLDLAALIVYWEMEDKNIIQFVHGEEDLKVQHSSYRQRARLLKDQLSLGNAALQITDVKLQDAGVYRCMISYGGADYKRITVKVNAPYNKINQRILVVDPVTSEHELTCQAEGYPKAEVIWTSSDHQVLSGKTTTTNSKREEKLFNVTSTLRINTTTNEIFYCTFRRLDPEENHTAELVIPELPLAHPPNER

IC50, ≤ 10 nM:
Cc1c(Nc2nccc3nccnc23)cccc1-c1cccc(-c2nc3cc(CN4CC[C@@H](C(=O)O)C4)cc(C#N)c3o2)c1C [Example 12, (R)-1-((7-cyano-2-(2,2′-dimethyl-3′-(pyrido[4,3-b]pyrazin-5-ylamino)biphenyl-3-yl)benzo[d]oxazol-5-yl)methyl)pyrrolidine-3-carboxylic acid]
Cc1c(NC(=O)c2nc3c(n2C)CCN(C)C3)cccc1-c1cccc(-c2nc3cc(CN4CC[C@H](C(=O)O)C4)cc(C#N)c3o2)c1C [Example 36, (S)-1-((7-cyano-2-(3′-(1,5-dimethyl-4,5,6,7-tetrahydro-1H-imidazo[4,5-c]pyridine-2-carboxamido)-2,2′-dimethylbiphenyl-3-yl)benzo[d]oxazol-5-yl)methyl)pyrrolidine-3-carboxylic acid]
Cc1c(-c2nc3cc(CN4CC[C@@](C)(C(=O)O)C4)cc(C#N)c3o2)cccc1-c1cccc(-c2nc3c(s2)CN(C(=O)CN[C@H]2C[C@H](O)C2)C3)c1C [Example 229, (R)-1-((7-cyano-2-(3′-(5-(2-(trans-3-hydroxycyclobutylamino)acetyl)-5,6-dihydro-4H-pyrrolo[3,4-d]thiazol-2-yl)-2,2′-dimethylbiphenyl-3-yl)benzo[d]oxazol-5-yl)methyl)-3-methylpyrrolidine-3-carboxylic acid]
Cc1c(Nc2ncnc3cc(CN4CC[C@@H](O)C4)cnc23)cccc1-c1cccc(-c2nc3cc(CN4CC[C@@H](C(=O)O)C4)cc(C#N)c3o2)c1C [Example 139, (R)-1-((7-cyano-2-(3′-(7-(((R)-3-hydroxypyrrolidin-1-yl)methyl)pyrido[3,2-d]pyrimidin-4-ylamino)-2,2′-dimethylbiphenyl-3-yl)benzo[d]oxazol-5-yl)methyl)pyrrolidine-3-carboxylic acid]
Cc1c(-c2nc3cc(CN4CC[C@@H](C(=O)NCCO)C4)cc(C#N)c3o2)cccc1-c1cccc(-c2nc3c(s2)CN(C(C)C)CC3)c1C [Example 119, (R)-1-((7-cyano-2-(3′-(5-isopropyl-4,5,6,7-tetrahydrothiazolo[5,4-c]pyridin-2-yl)-2,2′-dimethyl-[1,1′-biphenyl]-3-yl)benzo[d]oxazol-5-yl)methyl)-N-(2-hydroxyethyl)pyrrolidine-3-carboxamide]
